# Key:
# Staphylococcus aureus [1] = experiment: Antibacterial activity against Staphylococcus aureus ATCC 35556 assessed as planktonic growth; format: organism-based
# Pseudomonas aeruginosa [2] = experiment: Antibacterial activity against Pseudomonas aeruginosa PAO1 assessed as planktonic growth at 50 ug/ml; format: organism-based
# Pseudomonas aeruginosa [3] = experiment: Antibiofilm activity against Pseudomonas aeruginosa PAO1 assessed as inhibition of biofilm formation; format: functional, organism-based
# Staphylococcus aureus [4] = experiment: Antibiofilm activity against Staphylococcus aureus ATCC 35556 assessed as inhibition of biofilm formation; format: functional
# [5] = test system: Staphylococcus epidermidis; experiment: Antibacterial activity against Staphylococcus epidermidis GTC 18972 assessed as planktonic growth; format: organism-based
# Staphylococcus aureus [6] = experiment: Antibiofilm activity against methicillin-resistant Staphylococcus aureus 1094 assessed as inhibition of biofilm formation at 50 ug/ml; format: functional
# [7] = test system: Staphylococcus epidermidis; experiment: Antibiofilm activity against Staphylococcus epidermidis 1457 assessed as inhibition of biofilm formation at 50 ug/ml; format: functional
# Pseudomonas aeruginosa [8] = experiment: Antibacterial activity against Pseudomonas aeruginosa PAO1 assessed as planktonic growth; format: organism-based
# [9] = test system: Staphylococcus epidermidis; experiment: Antibiofilm activity against Staphylococcus epidermidis GTC 18972 assessed as inhibition of biofilm formation at 50 ug/ml; format: functional
# [10] = Cytotoxicity against human HeLa cells; format: cell-based
# Staphylococcus aureus [11] = experiment: Antibacterial activity against methicillin-resistant Staphylococcus aureus 1094 assessed as planktonic growth at 50 ug/ml; format: organism-based
# Staphylococcus aureus [12] = experiment: Antibiofilm activity against methicillin-resistant Staphylococcus aureus assessed as inhibition of biofilm formation at 50 ug/ml; format: functional
# [13] = test system: Staphylococcus epidermidis; experiment: Antibiofilm activity against Staphylococcus epidermidis GTC 18972 assessed as inhibition of biofilm formation; format: functional
# [14] = test system: Staphylococcus epidermidis; experiment: Antibacterial activity against Staphylococcus epidermidis 1457 assessed as planktonic growth at 50 ug/ml; format: organism-based
# [15] = test system: Staphylococcus epidermidis; experiment: Antibacterial activity against Staphylococcus epidermidis GTC 18972 assessed as planktonic growth at 50 ug/ml; format: organism-based
# Staphylococcus aureus [16] = experiment: Antibacterial activity against Staphylococcus aureus ATCC 35556 assessed as planktonic growth at 50 ug/ml; format: organism-based
# Pseudomonas aeruginosa [17] = experiment: Antibiofilm activity against Pseudomonas aeruginosa PAO1 assessed as inhibition of biofilm formation at 50 ug/ml; format: functional
# Staphylococcus aureus [18] = experiment: Antibiofilm activity against Staphylococcus aureus ATCC 35556 assessed as inhibition of biofilm formation at 50 ug/ml; format: functional
# [19] = test system: Staphylococcus epidermidis; experiment: Antibacterial activity against Staphylococcus epidermidis 1457 assessed as planktonic growth; format: organism-based
# Staphylococcus aureus [20] = experiment: Antibacterial activity against methicillin-resistant Staphylococcus aureus assessed as planktonic growth at 50 ug/ml; format: organism-based; settings: in vitro
# [21] = test system: Staphylococcus epidermidis; experiment: Antibiofilm activity against Staphylococcus epidermidis 1457 assessed as inhibition of biofilm formation; format: functional
# Staphylococcus aureus [22] = experiment: Antibiofilm activity against methicillin-resistant Staphylococcus aureus 1094 assessed as inhibition of biofilm formation; format: functional
# Staphylococcus aureus [23] = experiment: Antibiofilm activity against Staphylococcus aureus assessed as inhibition of biofilm formation; format: functional, organism-based
Structure (SMILES),MIC (Staphylococcus aureus [1]) [µg/mL],Activity (Pseudomonas aeruginosa [2]) [%],MBIC (Pseudomonas aeruginosa [3]),MBIC (Staphylococcus aureus [4]) [µg/mL],MIC [5] [µg/mL],inhibition at 50 µg/mL (Staphylococcus aureus [6]) [%],inhibition at 50 µg/mL [7] [%],MIC (Pseudomonas aeruginosa [8]),inhibition at 50 µg/mL [9] [%],CC50 [10] [µg/mL],Activity (Staphylococcus aureus [11]) [%],inhibition at 50 µg/mL (Staphylococcus aureus [12]) [%],MBIC [13] [µg/mL],Activity [14] [%],Activity [15] [%],Activity (Staphylococcus aureus [16]) [%],inhibition at 50 µg/mL (Pseudomonas aeruginosa [17]) [%],inhibition at 50 µg/mL (Staphylococcus aureus [18]) [%],MIC [19] [µg/mL],Activity (Staphylococcus aureus [20]) [%],further results
Nc1ncc(C(=O)CCNC(=O)c2cc(Br)c[nH]2)[nH]1,50,32.69,>=100 ug ml-1,50,25,85.5,98,>= 100 ug ml-1,97.8,86.4,88.88,88.8,25,85.98,86.77,81.24,29.6,98,50,88.41,MBIC [21]: 25 µg/mL
Nc1ncc(C(=O)CCNC(=O)c2ccc[nH]2)[nH]1,25,86.17,50 µg/mL,6.25,12.5,86.2,98,50 µg/mL,97.8,101,86.98,88.4,6.25,81.58,81.99,79.94,92,98.1,12.5,85.37,MBIC (Staphylococcus aureus [22]): 12.5 µg/mL; MBIC [21]: 6.25 µg/mL
Nc1ncc(/C=C/CNC(=O)c2cc(Br)c(Br)[nH]2)[nH]1 [OROIDIN],–,–,–,–,–,–,–,–,–,–,–,–,–,–,–,–,–,–,–,–,IC50 (Staphylococcus aureus [23]): 166 µM
